Laboratory results from the supplement of paper PMC10307832.

Legend:
Test in all cases: relative viability (nuclei count vs DMSO), 5 days (fraction); higher = more cells survive
[1] = compound: C=CC(=O)N1CCC[C@@H](n2nc(-c3ccc(Oc4ccccc4)cc3)c3c(N)ncnc32)C1 [Ibrutinib] + COc1cccc2cc(-c3nc([C@H]4CC[C@H](C(=O)O)CC4)n4ncnc(N)c34)[nH]c12 [OSI-027] (partner 0.5 µM)
Summary of the method: (§1)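 Five library-drug doses in √10 steps were combined with a fixed anchor-drug dose, or a single drug was given alone, by pin tool to lung cancer cell lines in 1536-well plates the day after seeding. Nuclei were stained and counted after 5 days. Relative viability is the nuclei count in treated wells over that in vehicle wells, taken as the median of duplicate plates.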

[2] = compound: C=CC(=O)N1CCC[C@@H](n2nc(-c3ccc(Oc4ccccc4)cc3)c3c(N)ncnc32)C1 [Ibrutinib] + Nc1ncn([C@H]2C[C@H](O)[C@@H](CO)O2)c(=O)n1 [Decitabine] (partner 2 µM)
Summary of the method: as §1

[3] = compound: C=CC(=O)Nc1cc(-n2c(=O)ccc3cnc4ccc(-c5ccc(NS(C)(=O)=O)cc5)cc4c32)ccc1C [BMX-IN-1] + CC1(C)CCC(c2ccc(Cl)cc2)=C(CN2CCN(c3ccc(C(=O)NS(=O)(=O)c4ccc(N[C@H](CCN5CCOCC5)CSc5ccccc5)c(S(=O)(=O)C(F)(F)F)c4)cc3)CC2)C1 [Navitoclax] (partner 0.5 µM)
Summary of the method: as §1

[4] = compound: C=CC(=O)Nc1cc(-n2c(=O)ccc3cnc4ccc(-c5ccc(NS(C)(=O)=O)cc5)cc4c32)ccc1C [BMX-IN-1] + NC(=O)Nc1cc(-c2cccc(F)c2)sc1C(=O)N[C@H]1CCCNC1 [AZD7762] (partner 0.2 µM)
Summary of the method: as §1

Cell Line | relative viability ([1]; first compound 0.005 µM) | relative viability ([1]; first compound 0.01581 µM) | relative viability ([1]; first compound 0.05 µM) | relative viability ([1]; first compound 0.1581 µM) | relative viability ([1]; first compound 0.5 µM) | relative viability ([2]; first compound 0.005 µM) | relative viability ([2]; first compound 0.05 µM) | relative viability ([2]; first compound 0.1581 µM) | relative viability ([2]; first compound 0.5 µM) | relative viability ([3]; first compound 0.02 µM) | relative viability ([3]; first compound 0.2 µM) | relative viability ([3]; first compound 0.6325 µM) | relative viability ([3]; first compound 2 µM) | relative viability ([4]; first compound 0.02 µM) | relative viability ([4]; first compound 0.2 µM) | relative viability ([4]; first compound 0.6325 µM) | relative viability ([4]; first compound 2 µM) | relative viability ([2]; first compound 0.01581 µM)
HOP-62 | 0.689 | 0.733 | 0.832 | 0.982 | 0.924 | 0.242 | 0.22 | 0.249 | 0.231 | 1.42 | 1.17 | 1.21 | 1.12 | 0.606 | 0.627 | 0.724 | 0.65 | –
IA-LM | – | – | – | – | – | – | – | – | – | 0.937 | 0.796 | 0.807 | 0.722 | – | – | – | – | –
LC-2-ad | 0.741 | 0.746 | 0.797 | 0.792 | 0.752 | 0.842 | 0.774 | 0.814 | 0.765 | 0.55 | 0.504 | 0.776 | 0.513 | 0.982 | 1.09 | 0.924 | 0.867 | 0.776
LCLC-97TM1 | 0.586 | 0.425 | 0.558 | 0.487 | 0.483 | 0.251 | 0.236 | 0.205 | 0.208 | 0.349 | 0.429 | 0.322 | 0.46 | 0.235 | 0.239 | 0.327 | 0.202 | 0.226
LCLC-103H | 0.459 | 0.409 | 0.485 | 0.393 | 0.485 | 0.685 | 0.754 | 0.759 | 0.725 | – | – | – | – | 0.824 | 0.887 | 0.773 | 0.82 | 0.705
LK-2 | 0.151 | 0.203 | 0.203 | 0.174 | 0.212 | 0.19 | 0.261 | 0.217 | 0.251 | 1.09 | 1.04 | 1.02 | 0.923 | 0.397 | 0.297 | 0.323 | 0.41 | 0.244
NCI-H358 | 0.486 | – | 0.378 | 0.488 | 0.211 | 0.176 | – | 0.232 | 0.136 | – | – | – | – | 0.448 | 0.504 | 0.491 | 0.486 | 0.204
NCI-H520 | 0.221 | – | 0.212 | 0.258 | 0.241 | 0.447 | 0.497 | 0.606 | 0.498 | 1.35 | 1.4 | 1.16 | 1.03 | – | – | – | – | 0.512
NCI-H522 | 0.656 | 0.693 | 0.692 | 0.597 | 0.648 | 0.64 | 0.677 | 0.626 | 0.637 | – | – | – | – | 1.07 | 0.914 | 0.769 | 0.846 | 0.588
NCI-H650 | 0.515 | 0.481 | 0.518 | 0.621 | 0.539 | 0.384 | 0.335 | 0.37 | 0.319 | – | – | – | – | 0.978 | 1.29 | 0.921 | 0.904 | 0.325
NCI-H661 | 0.702 | 0.674 | 0.476 | 0.698 | 0.423 | 0.498 | 0.428 | 0.471 | 0.381 | – | – | – | – | – | – | – | – | 0.489
NCI-H1299 | – | – | – | – | – | – | – | – | – | 1.08 | 1.05 | 1.05 | 1.06 | – | – | – | – | –
NCI-H1563 | 0.753 | 0.71 | 0.694 | 0.825 | 0.766 | – | – | – | – | – | – | – | – | – | – | – | – | –
NCI-H1623 | 0.42 | 0.403 | 0.32 | 0.42 | 0.313 | – | – | – | – | – | – | – | – | – | – | – | – | –
NCI-H1648 | 0.243 | 0.288 | 0.278 | 0.256 | 0.306 | 0.509 | 0.518 | 0.433 | 0.364 | – | – | – | – | 0.498 | 0.758 | 0.747 | 0.67 | 0.434
NCI-H1650 | 0.554 | 0.506 | 0.452 | 0.59 | 0.482 | 0.41 | 0.512 | 0.402 | 0.444 | 1.16 | 1.25 | 1.36 | 1.25 | – | – | – | – | 0.379
NCI-H1703 | – | – | – | – | – | – | – | – | – | 1.25 | 1.3 | 1.29 | 0.942 | 0.132 | – | – | 0.143 | –
NCI-H2009 | 0.522 | 0.631 | 0.585 | 0.729 | 0.804 | 0.375 | 0.372 | 0.46 | 0.415 | 1.23 | 1.31 | 1.19 | 1.24 | – | – | – | – | 0.373
NCI-H2023 | 0.28 | 0.315 | 0.349 | 0.504 | 0.375 | 0.245 | 0.249 | 0.208 | 0.23 | 1.36 | 1.15 | 1.12 | 0.988 | – | – | – | – | 0.234
NCI-H2228 | 0.511 | – | 0.478 | 0.481 | 0.509 | – | – | – | – | 0.954 | 0.853 | 1.44 | 0.969 | – | – | – | – | –
NCI-H2342 | 0.462 | 0.566 | 0.494 | 0.532 | 0.505 | 0.739 | 0.693 | 0.708 | 0.563 | – | – | – | – | 0.454 | 0.484 | 0.492 | 0.447 | 0.64
SK-LU-1 | 0.262 | 0.324 | 0.301 | 0.397 | 0.381 | 0.592 | 0.626 | 0.571 | 0.617 | 1 | 0.69 | 0.789 | 1.02 | – | – | – | – | 0.664
SW 900 | – | – | 0.532 | 0.442 | 0.62 | 0.401 | 0.412 | 0.432 | 0.458 | – | – | – | – | 0.656 | 0.636 | 0.735 | 0.666 | 0.509
SW 1573 | 0.436 | 0.517 | 0.653 | 0.704 | 0.651 | 0.364 | 0.482 | 0.412 | 0.683 | 1.22 | 1.39 | 1.21 | 0.808 | – | – | – | – | 0.459
UMC-11 | 0.306 | 0.441 | 0.495 | 0.541 | 0.5 | – | 0.452 | 0.596 | 0.789 | 0.285 | 0.327 | 0.283 | 0.294 | – | – | – | – | 0.588
